# Experimental data reported in patent EP4725941A1, “ARYLAMIDE DERIVATIVE HAVING ANTITUMOR ACTIVITY” (priority 2020, dated 2021).
# Read-outs that look alike come from different tables or passages of the source.
# Legend:
# [1] = system: NCI-H2122; assay: Cell proliferation-inhibiting activity (ATP in viable cells, CellTiter-Glo), NCI-H2122; format: cell-based, human; details: NCI-H2122, 96 h, read-out: NCI-H2122 IC50
# [2] = system: A549; assay: Cell proliferation-inhibiting activity (ATP in viable cells, CellTiter-Glo), A549; format: cell-based, human; details: A549, 96 h, read-out: A549 IC50
# [3] = Human liver microsome stability; format: in vitro ADME; details: human liver microsomes, pH 7.4
# [4] = biological target: T1, MEK1 (Homo sapiens, UniProt Q02750); assay: MEK1-inhibiting activity, fluorescent polarization method (CRAF/MEK1/ERK2 cascade, IMAP); format: biochemical; details: Table 3; read-out: MEK1 IC50
# T1 construct: purchased Thermo Fisher Scientific Inc. (MEK1, CRAF); Carna Biosciences, Inc. (ERK2)
# Procedure: The MEK1-inhibiting activity of the compounds listed in Table 3 below were evaluated by the fluorescent polarization method as described below.
# [5] = system: Calu-6; assay: Cell proliferation-inhibiting activity (ATP in viable cells, CellTiter-Glo), Calu-6; format: cell-based, human; details: Calu-6, 96 h, read-out: Calu-6 IC50
# [6] = biological target: T2, BRAF (Homo sapiens, UniProt P15056); assay: BRAF-inhibiting activity, time-resolved fluorescence-fluorescence resonance energy transfer assay; format: biochemical
# T2 construct: purchased Eurofins Genomics KK; (BRAF); Thermo Fisher Scientific Inc. (MEK1)
# Procedure: The BRAF-inhibiting activity of the compounds listed in Table 3 below was evaluated by the time-resolved fluorescence-fluorescence resonance energy transfer assay as described below.
# [7] = human lung cancer cells, 4 days
# T1 sequence (Q02750 whole entry): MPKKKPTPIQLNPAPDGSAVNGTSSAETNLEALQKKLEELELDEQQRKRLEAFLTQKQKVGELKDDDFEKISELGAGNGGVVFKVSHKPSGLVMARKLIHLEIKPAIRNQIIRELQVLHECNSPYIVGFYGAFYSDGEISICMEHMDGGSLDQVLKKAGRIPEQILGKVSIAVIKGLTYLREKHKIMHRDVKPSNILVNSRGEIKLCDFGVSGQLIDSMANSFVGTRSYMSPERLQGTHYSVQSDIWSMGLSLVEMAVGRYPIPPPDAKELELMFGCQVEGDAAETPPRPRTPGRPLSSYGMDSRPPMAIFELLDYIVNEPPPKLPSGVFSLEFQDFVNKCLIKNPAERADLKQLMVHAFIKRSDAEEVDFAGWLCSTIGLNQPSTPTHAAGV
# T2 sequence (P15056 417-766 limits assumed): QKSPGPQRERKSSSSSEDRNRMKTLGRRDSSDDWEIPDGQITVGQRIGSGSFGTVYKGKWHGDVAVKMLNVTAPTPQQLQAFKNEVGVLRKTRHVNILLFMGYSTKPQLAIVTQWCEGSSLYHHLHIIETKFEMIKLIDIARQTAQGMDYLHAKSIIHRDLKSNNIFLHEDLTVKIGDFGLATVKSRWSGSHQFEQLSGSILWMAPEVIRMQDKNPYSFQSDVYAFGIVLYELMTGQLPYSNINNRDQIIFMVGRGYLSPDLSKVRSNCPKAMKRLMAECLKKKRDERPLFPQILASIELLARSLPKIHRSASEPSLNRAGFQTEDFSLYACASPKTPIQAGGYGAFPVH
SMILES,"IC50 [1, 7]","IC50 [2, 7]",microsomal CLint at 0.99 µM [3],IC50 [4],"IC50 [5, 7]",IC50 ([6]; read-out: BRAF IC50; Table 3),IC50 ([1]; Homo sapiens),IC50 ([2]; Homo sapiens),IC50 ([5]; Homo sapiens),IC50 ([6]; Table 3; read-out: BRAF IC50)
"CC(C)S(=O)(=O)Nc1cccc(Cc2cc(C(N)=O)c(Nc3ccc(I)cc3F)c(F)c2F)c1F [Compound E-24, 3,4-Difluoro-2-(2-fluoro-4-iodoanilino)-5-[[2-fluoro-3-(propan-2-ylsulfonylamino)phenyl]methyl]benzamide]",5 nM,26 nM,10 µL/min/mg,189 nM,63 nM,20 nM,–,–,–,–
"CCS(=O)(=O)Nc1cccc(Cc2cc(C(N)=O)c(Nc3ccc(I)cc3F)c(F)c2F)c1 [Compound F-2, 5-[[3-(Ethylsulfonylamino)phenyl]methyl]-3,4-difluoro-2-(2-fluoro-4-iodoanilino)benzamide]",8 nM,8 nM,15 µL/min/mg,383 nM,66 nM,5 nM,–,–,–,–
"CNS(=O)(=O)Nc1nccc(Cc2cc(C(=O)NOC)c(Nc3ccc(C4CC4)cc3F)c(F)c2F)c1F [Compound G-2, 2-(4-Cyclopropyl-2-fluoroanilino)-3,4-difluoro-5-[[3-fluoro-2-(methylsulfamoylamino)pyridin-4-yl]methyl]-N-methoxybenzamide]",0.4 nM,2 nM,31 µL/min/mg,6 nM,13 nM,3 nM,–,–,–,–
"CNS(=O)(=O)Nc1nccc(Cc2cc(C(=O)NOC)c(Nc3ccc(Br)cc3F)c(F)c2F)c1F [Compound G-3, 2-(4-Bromo-2-fluoroanilino)-3,4-difluoro-5-[[3-fluoro-2-(methylsulfamoylamino)pyridin-4-yl]methyl]-N-methoxybenzamide]",2 nM,7 nM,29 µL/min/mg,15 nM,47 nM,5 nM,–,–,–,–
"CNS(=O)(=O)Nc1nccc(Cc2cc(C(N)=O)c(Nc3ccc(SC(F)F)cc3F)c(F)c2F)c1F [Compound H-1, 2-[4-(difluoromethylsulfanyl)-2-fluoroanilino]-3,4-difluoro-5-[[3-fluoro-2-(methylsulfamoylamino)pyridin-4-yl]methyl]benzamide]",–,–,39 µL/min/mg,7 nM,–,–,5 nM,9 nM,21 nM,2 nM
"CNS(=O)(=O)Nc1nccc(Oc2cc(C(N)=O)c(Nc3ccc(I)cc3F)c(F)c2F)c1F [Compound H-4, 3,4-difluoro-2-(2-fluoro-4-iodoanilino)-5-[3-fluoro-2-(methylsulfamoylamino)pyridin-4-yl]oxybenzamide]",1 nM,9 nM,11 µL/min/mg,8 nM,6 nM,12 nM,–,–,–,–
"CNS(=O)(=O)Nc1nccc(Cc2cc(C(N)=O)c(Nc3ccc(I)cc3F)cc2F)c1F [Compound I-1, 4-fluoro-2-(2-fluoro-4-iodoanilino)-5-[[3-fluoro-2-(methylsulfamoylamino)pyridin-4-yl]methyl]benzamide]",3 nM,5 nM,19 µL/min/mg,25 nM,15 nM,3 nM,–,–,–,–
"CNS(=O)(=O)Nc1nccc(Cc2cc(C(N)=O)c(Nc3ccc(I)cc3F)n(C)c2=O)c1F [Compound J-1, 2-(2-fluoro-4-iodoanilino)-5-[[3-fluoro-2-(methylsulfamoylamino)pyridin-4-yl]methyl]-1-methyl-6-oxopyridine-3-carboxamide]",8 nM,38 nM,11 µL/min/mg,58 nM,29 nM,4 nM,–,–,–,–
"Cn1c(Nc2ccc(C3CC3)cc2F)c(C(N)=O)cc(Cc2ccnc(NS(=O)(=O)NC3CC3)c2F)c1=O [Compound J-4, 2-(4-Cyclopropyl-2-fluoroanilino)-5-[[2-(cyclopropylsulfamoylamino)-3-fluoropyridin-4-yl]methyl]-1-methyl-6-oxopyridine-3-carboxamide]",–,–,67 µL/min/mg,877 nM,–,–,1060 nM,> 2000 nM,> 2000 nM,14 nM
"CNS(=O)(=O)Nc1nccc(Cc2cc(C(=O)NC3CC3)c(Nc3ccc(I)cc3F)n(C)c2=O)c1F [Compound J-5, N-cyclopropyl-2-(2-fluoro-4-iodoanilino)-5-[[3-fluoro-2-(methylsulfamoylamino)pyridin-4-yl]methyl]-1-methyl-6-oxopyridine-3-carbo xamide]",4 nM,7 nM,20 µL/min/mg,117 nM,29 nM,8 nM,–,–,–,–
"Cn1c(Nc2ccc(I)cc2F)c(C(=O)NC2CC2)cc(Cc2ccnc(NS(=O)(=O)NC3CC3)c2F)c1=O [Compound J-6, N-Cyclopropyl-5-[[2-(cyclopropylsulfamoylamino)-3-fluoropyridin-4-yl]methyl]-2-(2-fluoro-4-iodoanilino)-1-methyl-6-oxopyridine-3-carboxamide]",7 nM,14 nM,45 µL/min/mg,86 nM,27 nM,7 nM,–,–,–,–
"CNS(=O)(=O)Nc1nccc(Cc2cc(C(=O)NOC)c(Nc3ccc(I)cc3F)n(C)c2=O)c1F [Compound J-8, 2-(2-fluoro-4-iodoanilino)-5-[[3-fluoro-2-(methylsulfamoylamino)pyridin-4-yl]methyl]-N-methoxy-1-methyl-6-oxopyridine-3-carboxamide]",5 nM,24 nM,3 µL/min/mg,15 nM,77 nM,2 nM,–,–,–,–
"CNS(=O)(=O)Nc1nccc(Cc2cc(C(=O)NOC(C)(C)C)c(Nc3ccc(I)cc3F)n(C)c2=O)c1F [Compound J-10, 2-(2-fluoro-4-iodoanilino)-5-[[3-fluoro-2-(methylsulfamoylamino)pyridin-4-yl]methyl]-1-methyl-N-[(2-methylpropan-2-yl)oxy]-6-oxop yridine-3-carboxamide]",2 nM,8 nM,28 µL/min/mg,42 nM,13 nM,10 nM,–,–,–,–
"Cn1c(Nc2ccc(I)cc2F)c(C(=O)NOC(C)(C)C)cc(Cc2ccnc(NS(=O)(=O)NC3CC3)c2F)c1=O [Compound J-11, 5-[[2-(Cyclopropylsulfamoylamino)-3-fluoropyridin-4-yl]methyl]-2-(2-fluoro-4-iodoanilino)-1-methyl-N-[(2-methylpropan-2-yl)oxy]-6-oxopyr idine-3-carboxamide]",6 nM,13 nM,47 µL/min/mg,48 nM,27 nM,17 nM,–,–,–,–
"CNS(=O)(=O)Nc1cccc(Cc2cc(C(N)=O)c(Nc3ccc(I)cc3F)n(C)c2=O)c1F [Compound K-1, 2-(2-Fluoro-4-iodoanilino)-5-[[2-fluoro-3-(methylsulfamoylamino)phenyl]methyl]-1-methyl-6-oxopyridine-3-carboxamide]",4 nM,3 nM,97 µL/min/mg,55 nM,14 nM,3 nM,–,–,–,–
"CCNS(=O)(=O)Nc1cccc(Cc2cc(C(N)=O)c(Nc3ccc(I)cc3F)n(C)c2=O)c1F [Compound K-2, 5-[13-(Ethylsulfamoylamino)-2-fluorophenyl|methyl]-2-(2-fluoro-4-iodoanilino)-1-methyl-6-oxopyridine-3-carboxamide]",6 nM,6 nM,234 µL/min/mg,73 nM,27 nM,4 nM,–,–,–,–
"Cn1c(Nc2ccc(I)cc2F)c(C(N)=O)cc(Cc2cccc(NS(=O)(=O)NC3CC3)c2F)c1=O [Compound K-3, 5-[[3-(Cyclopropylsulfamoylamino)-2-fluorophenyl]methyl]-2-(2-fluor o-4-iodoanilino)-1-methyl-6-oxopyridine-3-carboxamide]",10 nM,9 nM,247 µL/min/mg,84 nM,31 nM,5 nM,–,–,–,–
"CNS(=O)(=O)Nc1cccc(Cc2cc(C(=O)NC3CC3)c(Nc3ccc(I)cc3F)n(C)c2=O)c1F [Compound K-4, N-Cyclopropyl-2-(2-fluoro-4-iodoanilino)-5-[[2-fluoro-3-(methylsulfamoylamino)phenyl]methyl]-1-methyl-6-oxopyridine-3-carboxamide]",5 nM,6 nM,129 µL/min/mg,106 nM,25 nM,11 nM,–,–,–,–
"Cn1c(Nc2ccc(I)cc2F)c(C(=O)NC2CC2)cc(Cc2cccc(NS(=O)(=O)NC3CC3)c2F)c1=O [Compound K-5, N-Cyclopropyl-5-[[3-(cyclopropylsulfamoylamino)-2-fluorophenyl]methyl]-2-(2-fluoro-4-iodoanilino)-1-methyl-6-oxopyridine-3-carboxamide]",23 nM,25 nM,245 µL/min/mg,139 nM,110 nM,9 nM,–,–,–,–
